US20080145313A1, “Compositions and Methods for the Treatment and Prevention of Neoplastic Disorders” (Genesis Research & Development Corporation Limited, priority 2006, published 2008)

Tested on: target transcript mRNA in A549 cells
Assay: Level of mRNA of target transcript in A549 cells by quantitative RT-PCR (Tables 12 and 13)
Assay type: cell-based, human
Details: 24 h post-transfection; for mRNA knockdown of energy and metabolism gene target transcript, 0.1 nM: 0.1 nM siRNA; for mRNA knockdown of energy and metabolism gene target transcript, 1 nM: 1 nM siRNA; for mRNA knockdown of energy and metabolism gene target transcript, 10 nM: 10 nM siRNA
Method: A549 cells were transfected as described before with 0.1, 1.0 and 10 nM siRNA as listed in Tables 10 and 11 and the relative mRNA levels quantified 24 h post-transfection. RNA was purified from cells using Trizol® extraction as per the manufacturer's protocol (Invitrogen). cDNA was prepared by digesting approximately 200 ng purified RNA with DNAse I (Invitrogen) for 15 minutes at room temperature, followed by 15 minutes at 65° C. in the presence of 25 mM EDTA. 30 ng random primers were added and incubated for 10 minutes at 65° C., 1 minute on ice; Superscript® III polymerase (Invitrogen) was added in presence of 5 nM DTT (Invitrogen) and 1 mM deoxyribonucleotides (Invitrogen), and the reaction incubated at 25° C. for 5 minutes, followed by an hour at 50° C. cDNA was diluted 1:3 in 10 mM Tris pH 7.0, and quantitative RT-PCR carried out on an ABI Prism 7900HT (Applied Biosciences, Inc., Foster City, Calif.) using FastStart TaqMan SYBRGreen (Roche, Basel, Switzerland) or Platinum SYBR Green (Invitrogen) and 360 nM of the primers specific for gene targets and housekeeping genes HPRT and Lamin. Reduction in target mRNA levels following siRNA transfection are given in Tables 12 and 13, together with the gene specific primer sequences. Primer sequences used for the housekeeping genes HPRT and Lamin are given in SEQ ID NO: 4885-4888.

Substance	mRNA knockdown of energy and metabolism gene target transcript, 0.1 nM	mRNA knockdown of energy and metabolism gene target transcript, 1 nM	mRNA knockdown of energy and metabolism gene target transcript, 10 nM
1686 (AACAGGATCTTCGGCCCCATCTG; chemistry not given here) [compound 1686]	− (<50% mRNA knockdown)	− (<50% mRNA knockdown)	–
1687 (CAACAGGATCTTCGGCCCCATCTG; chemistry not given here) [compound 1687]	− (<50% mRNA knockdown)	− (<50% mRNA knockdown)	–
1688 (CCAACAGGATCTTCGGCCCCATCTG; chemistry not given here) [compound 1688]	+ (50-70% mRNA knockdown)	++ (70-90% mRNA knockdown)	–
1689 (GCCAACAGGATCTTCGGCCCCATCTG; chemistry not given here) [compound 1689]	− (<50% mRNA knockdown)	++ (70-90% mRNA knockdown)	–
1690 (TGCCAACAGGATCTTCGGCCCCATCTG; chemistry not given here) [compound 1690]	++ (70-90% mRNA knockdown)	++ (70-90% mRNA knockdown)	–
1691 (TTGCCAACAGGATCTTCGGCCCCATCTG; chemistry not given here) [compound 1691]	− (<50% mRNA knockdown)	++ (70-90% mRNA knockdown)	–
1692 (TTTGCCAACAGGATCTTCGGCCCCATCTG; chemistry not given here) [compound 1692]	− (<50% mRNA knockdown)	− (<50% mRNA knockdown)	–
1693 (ATTTGCCAACAGGATCTTCGGCCCCATCTG; chemistry not given here) [compound 1693]	− (<50% mRNA knockdown)	− (<50% mRNA knockdown)	–
1694 (CGTGAAGCTCCCTGACGCCTA; chemistry not given here) [compound 1694]	− (<50% mRNA knockdown)	− (<50% mRNA knockdown)	–
1695 (ACGTGAAGCTCCCTGACGCCTA; chemistry not given here) [compound 1695]	++ (70-90% mRNA knockdown)	++ (70-90% mRNA knockdown)	–
1696 (AACGTGAAGCTCCCTGACGCCTA; chemistry not given here) [compound 1696]	− (<50% mRNA knockdown)	− (<50% mRNA knockdown)	–
1697 (GAACGTGAAGCTCCCTGACGCCTA; chemistry not given here) [compound 1697]	++ (70-90% mRNA knockdown)	+ (50-70% mRNA knockdown)	–
1698 (AGAACGTGAAGCTCCCTGACGCCTA; chemistry not given here) [compound 1698]	+ (50-70% mRNA knockdown)	+ (50-70% mRNA knockdown)	–
1699 (AAGAACGTGAAGCTCCCTGACGCCTA; chemistry not given here) [compound 1699]	− (<50% mRNA knockdown)	++ (70-90% mRNA knockdown)	–
1700 (CAAGAACGTGAAGCTCCCTGACGCCTA; chemistry not given here) [compound 1700]	+ (50-70% mRNA knockdown)	++ (70-90% mRNA knockdown)	–
3533 (AGATTGGAAGCCACCACATCAGTCTCAACA; chemistry not given here) [compound 3533]	− (<50% mRNA knockdown)	++ (70-90% mRNA knockdown)	–
3534 (GGGTAGGAGCCCTACACTAGG; chemistry not given here) [compound 3534]	++ (70-90% mRNA knockdown)	++ (70-90% mRNA knockdown)	–
3535 (AGGGTAGGAGCCCTACACTAGG; chemistry not given here) [compound 3535]	++ (70-90% mRNA knockdown)	+++ (>90% mRNA knockdown)	–
3536 (AAGGGTAGGAGCCCTACACTAGG; chemistry not given here) [compound 3536]	++ (70-90% mRNA knockdown)	+++ (>90% mRNA knockdown)	+++ (>90% mRNA knockdown)
3537 (CAAGGGTAGGAGCCCTACACTAGG; chemistry not given here) [compound 3537]	++ (70-90% mRNA knockdown)	+++ (>90% mRNA knockdown)	+++ (>90% mRNA knockdown)
3538 (CCAAGGGTAGGAGCCCTACACTAGG; chemistry not given here) [compound 3538]	++ (70-90% mRNA knockdown)	++ (70-90% mRNA knockdown)	+++ (>90% mRNA knockdown)
3539 (GCCAAGGGTAGGAGCCCTACACTAGG; chemistry not given here) [compound 3539]	− (<50% mRNA knockdown)	− (<50% mRNA knockdown)	− (<50% mRNA knockdown)
3540 (AGCCAAGGGTAGGAGCCCTACACTAGG; chemistry not given here) [compound 3540]	− (<50% mRNA knockdown)	− (<50% mRNA knockdown)	− (<50% mRNA knockdown)
3541 (GAGCCAAGGGTAGGAGCCCTACACTAGG; chemistry not given here) [compound 3541]	− (<50% mRNA knockdown)	− (<50% mRNA knockdown)	− (<50% mRNA knockdown)
3542 (GGAGCCAAGGGTAGGAGCCCTACACTAGG; chemistry not given here) [compound 3542]	+ (50-70% mRNA knockdown)	++ (70-90% mRNA knockdown)	–
3543 (TGGAGCCAAGGGTAGGAGCCCTACACTAGG; chemistry not given here) [compound 3543]	++ (70-90% mRNA knockdown)	++ (70-90% mRNA knockdown)	–
3544 (CTACCGCGAGCTGCGCTGGTT; chemistry not given here) [compound 3544]	++ (70-90% mRNA knockdown)	++ (70-90% mRNA knockdown)	–
3545 (ACTACCGCGAGCTGCGCTGGTT; chemistry not given here) [compound 3545]	++ (70-90% mRNA knockdown)	++ (70-90% mRNA knockdown)	+++ (>90% mRNA knockdown)
3546 (AACTACCGCGAGCTGCGCTGGTT; chemistry not given here) [compound 3546]	+ (50-70% mRNA knockdown)	++ (70-90% mRNA knockdown)	+++ (>90% mRNA knockdown)
3547 (CAACTACCGCGAGCTGCGCTGGTT; chemistry not given here) [compound 3547]	++ (70-90% mRNA knockdown)	++ (70-90% mRNA knockdown)	+++ (>90% mRNA knockdown)
